Experiment in all cases: biochemical
Common to all, as to design: Eurofins KinaseProfiler full panel at Km ATP, residual kinase activity (%) relative to DMSO

In assay [1] the target is T1, CaMKIIγ(h) (Homo sapiens, UniProt Q13555).
T1 construct: gene CAMK2G
The procedure, abridged:
(§1)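 Compounds screened at 10 µM in radiometric kinase activity assays at Km ATP, reported as remaining kinase activity (%). A KINOMEscan competition-binding screen at 10 µM measured DNA-tagged kinase retained on immobilized active-site ligand by qPCR.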

The target in assay [2] is T2, DYRK2(h) (Homo sapiens, UniProt Q92630).
T2 sequence (Q92630 1-601): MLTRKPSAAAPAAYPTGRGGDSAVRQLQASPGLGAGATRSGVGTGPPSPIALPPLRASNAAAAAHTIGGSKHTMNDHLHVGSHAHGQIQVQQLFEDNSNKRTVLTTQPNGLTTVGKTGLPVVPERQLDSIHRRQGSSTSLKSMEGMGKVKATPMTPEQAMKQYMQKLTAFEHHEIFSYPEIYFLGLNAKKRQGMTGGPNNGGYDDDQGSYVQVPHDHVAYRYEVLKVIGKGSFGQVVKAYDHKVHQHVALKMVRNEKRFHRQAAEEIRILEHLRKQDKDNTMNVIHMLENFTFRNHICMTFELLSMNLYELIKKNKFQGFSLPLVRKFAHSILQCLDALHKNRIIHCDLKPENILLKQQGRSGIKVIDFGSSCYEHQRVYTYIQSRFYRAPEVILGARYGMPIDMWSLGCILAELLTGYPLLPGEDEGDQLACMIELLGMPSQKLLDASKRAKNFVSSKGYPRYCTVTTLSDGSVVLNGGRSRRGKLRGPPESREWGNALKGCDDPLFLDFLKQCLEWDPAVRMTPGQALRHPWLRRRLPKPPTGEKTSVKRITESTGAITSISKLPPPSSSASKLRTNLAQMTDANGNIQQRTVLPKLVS
The procedure, abridged: as §1

The target in assay [3] is T3, DYRK3(h) (Homo sapiens, UniProt O43781).
T3 sequence (O43781 1-588): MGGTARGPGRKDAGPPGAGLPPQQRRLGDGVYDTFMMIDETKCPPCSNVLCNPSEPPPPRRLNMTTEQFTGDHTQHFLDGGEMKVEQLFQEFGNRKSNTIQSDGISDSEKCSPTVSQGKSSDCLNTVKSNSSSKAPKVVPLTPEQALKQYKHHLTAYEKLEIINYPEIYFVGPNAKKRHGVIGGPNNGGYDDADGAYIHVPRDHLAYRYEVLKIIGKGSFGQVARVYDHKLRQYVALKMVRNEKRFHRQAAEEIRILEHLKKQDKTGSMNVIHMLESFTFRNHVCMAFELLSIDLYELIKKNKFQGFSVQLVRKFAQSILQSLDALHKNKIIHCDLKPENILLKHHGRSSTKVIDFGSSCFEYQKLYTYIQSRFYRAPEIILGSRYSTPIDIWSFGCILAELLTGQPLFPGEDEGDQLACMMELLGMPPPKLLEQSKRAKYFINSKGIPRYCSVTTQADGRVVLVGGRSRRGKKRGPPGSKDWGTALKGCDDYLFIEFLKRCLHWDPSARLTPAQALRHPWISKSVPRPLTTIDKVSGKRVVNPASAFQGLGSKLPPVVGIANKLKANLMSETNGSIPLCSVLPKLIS
The procedure, abridged: as §1

The target of assay [4] is Flt4(h) (Homo sapiens, UniProt P35916). The procedure, abridged: as §1
In assay [5] the target is T4, IRAK4(h) (Homo sapiens, UniProt Q9NWZ3).
T4 sequence (Q9NWZ3 1-460): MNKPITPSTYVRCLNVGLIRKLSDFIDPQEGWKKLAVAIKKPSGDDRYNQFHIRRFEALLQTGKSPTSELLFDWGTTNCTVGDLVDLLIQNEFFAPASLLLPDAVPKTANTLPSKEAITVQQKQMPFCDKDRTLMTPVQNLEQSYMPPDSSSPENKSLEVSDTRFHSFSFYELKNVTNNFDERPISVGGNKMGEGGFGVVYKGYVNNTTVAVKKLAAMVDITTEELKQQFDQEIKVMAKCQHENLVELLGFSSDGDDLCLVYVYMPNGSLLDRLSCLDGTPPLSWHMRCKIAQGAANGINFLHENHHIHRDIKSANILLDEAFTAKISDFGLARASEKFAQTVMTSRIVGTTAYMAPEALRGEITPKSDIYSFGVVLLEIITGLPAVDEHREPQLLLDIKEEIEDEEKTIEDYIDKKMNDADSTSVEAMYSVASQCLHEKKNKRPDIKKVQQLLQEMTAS
The procedure, abridged:
as §1

Assay [6] concerns the target PAK1(h) (Homo sapiens, UniProt Q13153). The procedure, abridged: as §1
Assay [7] deals with T5, PDHK2(h) (Homo sapiens, UniProt Q15119).
T5 construct: gene PDK2
The procedure, abridged:
as §1

In assay [8] the target is T6, PIP5K1g(h) (Homo sapiens, UniProt O60331).
T6 construct: gene PIP5K1C
The procedure, abridged:
as §1

[9] abbreviates: read-out: Residual activity (%) Spautin-1 5aa.
[10] abbreviates: read-out: Residual activity (%) 5as.
Where [11] appears, read: read-out: Residual activity (%) 5at.
Setting [12] is: read-out: Residual activity (%) 5ay.

Like-named read-outs stand apart in the source and are kept apart here.

Experimental findings from PMC7827406, “Structure–Activity Relationship (SAR) Study of Spautin-1 to Entail the Discovery of Novel NEK4 Inhibitors” (International Journal of Molecular Sciences, 2021) are described below.

Sequence of PAK1(h) (Q13153 whole entry): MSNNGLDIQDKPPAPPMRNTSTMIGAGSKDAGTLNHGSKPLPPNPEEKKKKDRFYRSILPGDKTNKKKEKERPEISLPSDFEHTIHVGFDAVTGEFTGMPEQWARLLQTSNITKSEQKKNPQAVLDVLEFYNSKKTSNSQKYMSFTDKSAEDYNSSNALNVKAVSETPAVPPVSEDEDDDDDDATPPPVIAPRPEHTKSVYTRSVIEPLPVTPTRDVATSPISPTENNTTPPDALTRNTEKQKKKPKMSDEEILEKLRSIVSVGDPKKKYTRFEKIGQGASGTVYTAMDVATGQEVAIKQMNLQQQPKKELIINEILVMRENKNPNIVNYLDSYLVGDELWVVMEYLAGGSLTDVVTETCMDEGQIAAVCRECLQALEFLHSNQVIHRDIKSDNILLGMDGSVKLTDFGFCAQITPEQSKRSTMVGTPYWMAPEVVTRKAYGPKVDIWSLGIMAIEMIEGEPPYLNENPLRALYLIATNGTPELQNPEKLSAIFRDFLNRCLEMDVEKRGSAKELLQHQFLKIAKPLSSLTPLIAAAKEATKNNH
Sequence of Flt4(h) (P35916 whole entry): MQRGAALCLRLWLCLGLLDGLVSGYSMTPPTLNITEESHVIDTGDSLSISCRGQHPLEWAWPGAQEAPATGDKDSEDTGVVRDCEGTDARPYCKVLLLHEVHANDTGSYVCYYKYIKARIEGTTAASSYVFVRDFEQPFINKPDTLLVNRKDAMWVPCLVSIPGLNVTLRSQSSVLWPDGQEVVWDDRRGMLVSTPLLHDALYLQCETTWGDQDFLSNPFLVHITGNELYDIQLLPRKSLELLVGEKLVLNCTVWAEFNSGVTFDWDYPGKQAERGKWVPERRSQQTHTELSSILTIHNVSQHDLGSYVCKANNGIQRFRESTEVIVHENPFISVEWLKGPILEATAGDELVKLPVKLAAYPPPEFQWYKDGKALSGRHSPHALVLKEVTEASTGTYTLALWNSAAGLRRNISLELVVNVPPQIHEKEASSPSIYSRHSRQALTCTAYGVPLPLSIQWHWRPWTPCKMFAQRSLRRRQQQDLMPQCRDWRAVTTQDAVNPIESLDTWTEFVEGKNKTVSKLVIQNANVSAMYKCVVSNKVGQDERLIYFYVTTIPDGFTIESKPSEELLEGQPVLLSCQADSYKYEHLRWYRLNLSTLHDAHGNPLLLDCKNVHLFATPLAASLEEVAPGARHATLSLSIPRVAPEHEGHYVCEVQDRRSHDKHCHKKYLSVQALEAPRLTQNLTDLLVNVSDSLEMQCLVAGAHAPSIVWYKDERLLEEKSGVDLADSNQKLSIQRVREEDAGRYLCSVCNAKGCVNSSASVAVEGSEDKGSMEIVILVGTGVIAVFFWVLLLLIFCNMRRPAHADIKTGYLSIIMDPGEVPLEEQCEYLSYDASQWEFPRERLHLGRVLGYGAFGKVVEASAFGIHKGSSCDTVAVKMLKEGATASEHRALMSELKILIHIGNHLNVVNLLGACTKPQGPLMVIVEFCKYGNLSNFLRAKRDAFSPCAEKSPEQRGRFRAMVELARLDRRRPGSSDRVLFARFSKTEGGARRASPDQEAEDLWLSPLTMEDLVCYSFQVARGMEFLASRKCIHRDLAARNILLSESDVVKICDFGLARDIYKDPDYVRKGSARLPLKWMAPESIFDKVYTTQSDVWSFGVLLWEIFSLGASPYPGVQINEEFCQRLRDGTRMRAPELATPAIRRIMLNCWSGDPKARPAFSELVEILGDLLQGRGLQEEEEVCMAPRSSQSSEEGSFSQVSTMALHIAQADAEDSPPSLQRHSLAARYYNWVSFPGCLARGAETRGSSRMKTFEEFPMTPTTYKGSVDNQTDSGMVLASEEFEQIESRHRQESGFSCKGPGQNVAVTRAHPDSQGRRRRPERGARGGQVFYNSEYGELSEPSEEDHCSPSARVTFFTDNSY
T1 sequence (Q13555 whole entry): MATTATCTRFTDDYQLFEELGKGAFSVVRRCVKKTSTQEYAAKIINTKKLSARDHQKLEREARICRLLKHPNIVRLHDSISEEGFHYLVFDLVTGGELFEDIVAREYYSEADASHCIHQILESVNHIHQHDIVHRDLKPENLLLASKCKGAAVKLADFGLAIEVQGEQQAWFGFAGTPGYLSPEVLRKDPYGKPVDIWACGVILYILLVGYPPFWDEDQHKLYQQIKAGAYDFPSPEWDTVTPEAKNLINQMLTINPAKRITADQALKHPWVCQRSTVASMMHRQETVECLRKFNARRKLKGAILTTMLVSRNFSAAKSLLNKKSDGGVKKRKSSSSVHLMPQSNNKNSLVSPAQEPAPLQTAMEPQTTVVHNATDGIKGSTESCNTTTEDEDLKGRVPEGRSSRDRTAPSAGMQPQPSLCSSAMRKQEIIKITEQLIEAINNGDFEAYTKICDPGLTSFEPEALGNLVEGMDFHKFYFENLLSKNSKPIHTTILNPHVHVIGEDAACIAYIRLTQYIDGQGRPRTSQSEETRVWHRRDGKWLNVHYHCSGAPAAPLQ
T6 sequence (O60331 whole entry): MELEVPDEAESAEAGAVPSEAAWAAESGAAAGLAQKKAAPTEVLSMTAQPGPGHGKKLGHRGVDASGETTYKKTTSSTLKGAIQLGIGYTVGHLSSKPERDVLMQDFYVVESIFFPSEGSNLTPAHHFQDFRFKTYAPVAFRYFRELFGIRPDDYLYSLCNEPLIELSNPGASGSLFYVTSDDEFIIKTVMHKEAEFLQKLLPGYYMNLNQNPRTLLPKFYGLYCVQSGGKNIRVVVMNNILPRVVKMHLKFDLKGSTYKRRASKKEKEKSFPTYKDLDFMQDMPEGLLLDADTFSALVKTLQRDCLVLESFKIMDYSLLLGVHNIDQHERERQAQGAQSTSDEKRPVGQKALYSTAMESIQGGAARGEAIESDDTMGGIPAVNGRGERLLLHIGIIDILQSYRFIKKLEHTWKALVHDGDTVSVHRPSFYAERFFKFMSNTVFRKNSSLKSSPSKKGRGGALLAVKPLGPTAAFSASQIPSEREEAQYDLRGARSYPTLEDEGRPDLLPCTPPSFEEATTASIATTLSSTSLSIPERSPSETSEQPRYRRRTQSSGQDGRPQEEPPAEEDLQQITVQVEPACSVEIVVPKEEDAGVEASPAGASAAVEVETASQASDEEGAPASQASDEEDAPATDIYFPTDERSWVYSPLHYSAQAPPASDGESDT

Consider `Fc1ccc(CNc2ncnc3ccc(F)cc23)cc1` [5aa, 6-Fluoro-N-(4-fluorobenzyl)-4-Quinazolinamine], for which the remaining activity at 10 µM in assay [1] (setting [9]) was 83%; in assay [2] (setting [9]) it was 99%; in assay [3] (setting [9]), 117%; in assay [4] (setting [9]), 92%; in assay [5] (setting [9]) it was 96%; in assay [6] (setting [9]), 94%. Moreover, the values for the remaining activity at 10 µM in assay [7] (setting [9]) and in assay [8] (setting [9]) were 103% and 100%, respectively.
Take `Fc1ccc(CCNc2ncnc3ccc(F)cc23)cc1` [5as, 6-Fluoro-N-[2-(4-Fluorophenyl)Ethyl]-4-Quinazolinamine]: the remaining activity at 10 µM in assay [1] (setting [10]) is 74%; in assay [2] (setting [10]) it was 100%; in assay [3] (setting [10]), 98%; in assay [4] (setting [10]) it was 81%; in assay [5] (setting [10]) it was 92%; in assay [6] (setting [10]), 81%. In addition, the remaining activity at 10 µM came out at 93% in assay [7] (setting [10]) and 104% in assay [8] (setting [10]).
For `Fc1ccc2ncnc(NCCc3ccc(Cl)cc3)c2c1` [5at, N-[2-(4-Chlorophenyl)Ethyl]-6-Fluoro-4-Quinazolinamine], the remaining activity at 10 µM in assay [1] (setting [11]) is 75%; in assay [2] (setting [11]), 103%; in assay [3] (setting [11]), 98%; in assay [4] (setting [11]), 90%; in assay [5] (setting [11]), 103%; in assay [6] (setting [11]) it was 90%. Besides, the remaining activity at 10 µM in assay [7] (setting [11]) turned out to be 87%; in assay [8] (setting [11]), 101%.
With `COc1ccc2ncnc(Nc3cccc(F)c3)c2c1` [5ay, N-(3-Fluorophenyl)-6-Methoxy-4-Quinazolinamine], the remaining activity at 10 µM in assay [1] (setting [12]) is 41%; in assay [2] (setting [12]), 64%; in assay [3] (setting [12]), 57%; in assay [4] (setting [12]), 66%; in assay [5] (setting [12]), 60%; in assay [6] (setting [12]), 97%. Moreover, the remaining activity at 10 µM was determined as 94% in assay [7] (setting [12]) and 107% in assay [8] (setting [12]).
